Laboratory results from US4556660A, “N-(Bicyclic heterocyclyl)-4-piperidinamines” (Janssen Pharmaceutica N.V., priority 1983, dated 1985).
Read-outs that look alike come from different tables or passages of the source.

Legend:
[1] = tested on: compound 48/80-induced lethality; experiment: Protection of rats from compound 48/80-induced lethality; type: in vivo, Male rats of an inbred Wistar strain; details: Rattus norvegicus, 4 h, read-out: compound 48/80 lethality test rats-ED50
Experimental: Protection of rats from compound 48/80-induced lethality
The protection from compound 48/80-induced lethal circulatory collapse appears to be a simple way of evaluating quantitatively the antihistaminic activity of test compounds. Male rats of an inbred Wistar strain, weighing 240-260 g were used in the experiment. After overnight starvation the rats were transferred to conditioned laboratories (temp.=21±1° C., relative humidity-65±5%).
The rats were treated subcutaneously or orally with a test compound or with the solvent (NaCl solution, 0.9%). […] Survival after 4 hours is therefore considered to be a safe criterion of a protective effect of drug administration.
The ED50 -values of the compounds of formula (I) and the intermediates of formula (XVIII) are listed in the first column of table 1 and table 2. Said ED50 -values are the values in mg/kg body weight at which the tested compounds protect 50% of the tested animals against compound 48/80-induced lethality.

[2] = tested on: serotonin; compound 48/80-induced gastric lesions; experiment: Antagonistic activity on the effects of serotonin in the gastric lesion test (lesions induced by compound 48/80); type: in vivo, Male rats of a Wistar inbred strain
Experimental: Antagonistic activity on the effects of serotonin in the gastric lesion test
Male rats of a Wistar inbred strain, weighing 220-250 g, were starved overnight, water being available ad libitum. The test compounds were administered orally as a solution or as a suspension in aqueous medium. A control rat and a "blank" rat received the test compound. One hour later 5-[4-(diphenylmethyl)-1-piperazinylmethyl]-1-methyl-1H-benzimidazole-2-methanol was administered subcutaneously to all rats at the dose of 2.5 mg/kg.
Four hours after the intravenous injection of compound 48/80, the rats were decapitated and the stomachs were removed. Subsequently the stomachs were inspected for distension and contents (blood, fluid, food) and thoroughly rinsed. The macroscopic lesions were scored from 0 to +++, 0 corresponding to complete absence of visible lesions and the highest score corresponding to reddish rough patches covering more than half the glandular area.

[3] = Rattus norvegicus, po; read-out: gastric lesion test ED50
[4] = Rattus norvegicus, po, read-out: gastric lesion test ED50

Row | SMILES | ED50 [1] [mg/kg] | ED50 [2, 3] [mg/kg] | ED50 [2, 4] [mg/kg]
1 | CN(CCN1CCC(Nc2nc3ccccc3n2Cc2ccc(F)cc2)CC1)c1ccc(Cl)cn1 [Compound 56] | 0.31 | 1.25 | 
2 | Cl.Cl.Fc1ccc(Cn2c(NC3CCN(CCNc4ccnc(Cl)n4)CC3)nc3ccccc32)cc1.O [Compound 60, N-[1-[2-[(2-chloro-4-pyrimidinyl)amino]ethyl]-4-piperidinyl]-1-[(4-fluorophenyl)methyl]1H-benzimidazol-2-amine dihydrochloride monohydrate] | 0.31 | 2.5 | 
3 | Cc1cc(NCCN2CCC(Nc3nc4ccccc4n3Cc3ccc(F)cc3)CC2)nc(Cl)n1 [Compound 61, N-[1-[2-[(2-chloro-6-methyl-4-pyrimidinyl)amino]ethyl]-4-piperidinyl]-1-[(4-fluorophenyl)methyl]-1H-benzimidazol-2-amine] | 0.08 | 2.5 | 
4 | Nc1nc(NCCN2CCC(Nc3nc4ccccc4n3Cc3ccc(F)cc3)CC2)ccc1[N+](=O)[O-] [Compound 63, N^6-[2-[4-[[1-[(4-fluorophenyl)methyl]1H-benzimidazol-2-yl]amino]-1-piperidinyl]ethyl]-3-nitro-2,6-pyridinediamine] | 0.31 | 2.5 | 
5 | c1ccc(Cn2c(NC3CCN(CCNc4ncccn4)CC3)nc3ccccc32)cc1 [Compound 65, 1-(phenylmethyl)-N-[1-[2-[(2-pyrimidinyl)amino]ethyl]-4-piperidinyl]-1H-benzimidazol-2-amine] | 0.08 | 0.31 | 
6 | Cc1ccc(Cn2c(NC3CCN(CCNc4ncccn4)CC3)nc3ccccc32)cc1 [Compound 67, 1-[(4-methylphenyl)methyl]-N-[1-[2-[(2-pyrimidinyl)amino]ethyl]-4-piperidinyl]-1H-benzimidazol-2-amine] | 0.16 |  | 0.63
7 | Clc1ccc(Cn2c(NC3CCN(CCNc4ncccn4)CC3)nc3ccccc32)cc1 [Compound 68, 1-[(4-chlorophenyl)methyl]-N-[1-[2-(2-pyrimidinylamino)ethyl]-4-piperidinyl]-1H-benzimidazol-2-amine] | 0.16 | 2.5 | 
8 | COc1ccc(Cn2c(NC3CCN(CCNc4ncccn4)CC3)nc3ccccc32)cc1 [Compound 69, 1-[(4-methoxyphenyl)methyl]-N-[1-[2-(2-pyrimidinylamino)ethyl]-4-piperidinyl]-1H-benzimidazol-2-amine] | 0.31 | 2.5 | 
9 | O=C(O)/C=C/C(=O)O.O=C(O)/C=C/C(=O)O.c1cnc(NCCN2CCC(Nc3nc4ccccc4n3Cc3cscn3)CC2)nc1 [Compound 72, N-[1-[2-(2-pyrimidinylamino)ethyl]-4-piperidinyl]-1-(4-thiazolylmethyl)-1H-benzimidazol-2-amine (E)-2-butenedioate (1:2)] | 0.02 |  | 0.08
10 | Oc1ccc(Cn2c(NC3CCN(CCNc4ncccn4)CC3)nc3ccccc32)cc1 [Compound 73, 4-[[2-[[1-[2-(2-pyrimidinylamino)ethyl]-4-piperidinyl]amino]-1H-benzimidazol-1-yl]methyl]phenol] | 2.5 | 2.5 | 
11 | CN(c1nc2ccccc2n1Cc1ccc(F)cc1)C1CCN(CCNc2ncccn2)CC1 [Compound 75] | 0.08 |  | 0.63
12 | Fc1ccc(Cn2c(NC3CCN(CCOc4ccc5ccccc5n4)CC3)nc3ccccc32)cc1 [Compound 77, 1-[(4-fluorophenyl)methyl]-N-[1-[2-(2-quinolinyloxy)ethyl]-4-piperidinyl]-1H-benzimidazol-2-amine] | 1.25 | 2.5 | 
13 | CSc1nccc(OCCN2CCC(Nc3nc4ccccc4n3Cc3ccc(F)cc3)CC2)n1 [Compound 79, 1-[(4-fluorophenyl)methyl]-N-[1-[2-[[2-(methylthio)-4-pyrimidinyl]oxy]ethyl]-4-piperidinyl]-1H-benzimidazol-2-amine] | 0.16 | 2.5 | 
14 | Fc1ccc(Cn2c(NC3CCN(CCOc4ncccn4)CC3)nc3ccccc32)cc1 [Compound 81, 1-[(4-fluorophenyl)methyl]-N-[1-[2-(2-pyrimidinyloxy)ethyl]-4-piperidinyl]-1H-benzimidazol-2-amine] | 0.16 | 0.63 | 
15 | O=C(O)/C=C/C(=O)O.O=C(O)/C=C/C(=O)O.c1cnc(OCCN2CCC(Nc3nc4ccccc4n3Cc3ccco3)CC2)nc1 [Compound 83, 1-(2-furanylmethyl)-N-[1-[2-(2-pyrimidinyloxy)ethyl]-4-piperidinyl]-1H-benzimidazol-2-amine (E)-2-butenedioate (1:2)] | 0.08 | 1.25 | 
16 | Fc1ccc(Cn2c(NC3CCN(CCOCc4ccccn4)CC3)nc3ccccc32)cc1.O=C(O)/C=C/C(=O)O.O=C(O)/C=C/C(=O)O [Compound 84, 1-[(4-fluorophenyl)methyl]-N-[1-[2-(2-pyridinylmethoxy)ethyl]-4-piperidinyl]-1H-benzimidazol-2-amine (E)-2-butenedioate (1:2)] | 0.08 | 2.5 | 
17 | O.O=c1nc(NCCN2CCC(Nc3nc4ccccc4n3Cc3ccc(F)cc3)CC2)[nH]cc1Cc1ccc(Cl)cc1 [Compound 85, 5-[(4-chlorophenyl)methyl]-2-[[2-[4-[[1-[(4-fluorophenyl)methyl]-1H-benzimidazol-2-yl]amino]-1-piperidinyl]ethyl]amino]-4(1H)-pyrimidinone monohydrate] | 1.25 | 2.5 | 
18 | CCCc1cc(O)nc(NCCN2CCC(Nc3nc4ccccc4n3Cc3ccc(F)cc3)CC2)n1 [Compound 86, 2-[[2-[4-[[1-[(4-fluorophenyl)methyl]-1H-benzimidazol-2-yl]amino]-1-piperidinyl]ethyl]amino]-6-propyl-4-pyrimidinol] | 0.31 | 2.5 | 
19 | O=c1ccnc(NCCN2CCC(Nc3nc4ccccc4n3Cc3ccc(F)cc3)CC2)[nH]1 [Compound 87] | 0.08 | 0.63 | 
20 | O=c1nc(NCCN2CCC(Nc3nc4ccccc4n3Cc3ccc(F)cc3)CC2)[nH]c2ccccc12 [Compound 88, 2-[[2-[4-[[1-[(4-fluorophenyl)methyl]-1H-benzimidazol-2-yl]amino]1-piperidinyl]ethyl]amino]-4(1H)-quinazolinone] | 0.63 | 2.5 | 
21 | Cc1cc(=O)[nH]c(NCCN2CCC(Nc3nc4ccccc4n3Cc3ccc(F)cc3)CC2)n1 [Compound 90] | 0.16 | 0.63 | 
22 | Fc1ccc(Cn2c(NC3CCN(CCSc4ncccn4)CC3)nc3ccccc32)cc1 [Compound 91, 1-[(4-fluorophenyl)methyl]-N-[1-[2-(2-pyrimidinylthio)ethyl]-4-piperidinyl]-1H-benzimidazol-2-amine] | 0.16 | 0.16 | 
23 | O.O=c1nc(SCCN2CCC(Nc3nc4ccccc4n3Cc3ccc(F)cc3)CC2)[nH]c2ccccc12 [Compound 92, 2-[2-[4-[[1-[(4-fluorophenyl)methyl]-1H-benzimidazol-2-yl]amino]-1-piperidinyl]ethylthio]-4(1H)-quinazolinone monohydrate] | 0.31 | 2.5 | 
24 | Cl.Cl.Cl.Nc1cccnc1NCCN1CCC(Nc2nc3ccccc3n2Cc2ccc(F)cc2)CC1 [Compound 93, N^2-[2-[4-[[1-[(4-fluorophenyl)methyl] -1H-benzimidazol-2-yl]amino]-1-piperidinyl]ethyl]-2,3-pyridinediamine trihydrochloride] | 0.08 | 0.31 | 
25 | Fc1ccc(Cn2c(NC3CCN(CCNc4ccncn4)CC3)nc3ccccc32)cc1 [Compound 94, 1-[(4-fluorophenyl)methyl]-N-[1-[2-(4-pyrimidinylamino)ethyl]-4-piperidinyl]-1H-benzimidazol-2-amine hemihydrate] | 0.08 | 1.25 | 
26 | Nc1cncnc1NCCN1CCC(Nc2nc3ccccc3n2Cc2ccc(F)cc2)CC1 [Compound 96, N^4-[2-[4-[[1-[(4-fluorophenyl)methyl]-1H-benzimidazol-2-yl]amino]-1-piperidinyl]ethyl]-4,5-pyrimidinediamine] | 0.08 | 0.02 | 
27 | Fc1ccc(Cn2c(NC3CCN(C4CCN(c5ccccn5)CC4)CC3)nc3ccccc32)cc1 [Compound 97, N-[1-[(4-fluorophenyl)methyl]-1H-benzimidazol-2-yl]-1'-(2-pyridinyl)-[1,4'-bipiperidin]-4-amine (E)-2-butenedioate (2:3) monohydrate] | 0.63 | 2.5 | 
28 | CC(=O)N(CCN1CCC(Nc2nc3ccccc3n2Cc2ccc(F)cc2)CC1)c1ncccn1.O=C(O)/C=C/C(=O)O.O=C(O)/C=C/C(=O)O [Compound 99, N-[2-[4-[[1-[(4-fluorophenyl)methyl]-1H-benzimidazol-2-yl]amino]-1-piperidinyl]ethyl]-N-(2-pyrimidinyl)acetamide (E)-2-butenedioate (1:2)] | 0.04 | 0.63 | 
